Assay results taken from patent publication US20100278733A1, “COMPOSITION FOR DIAGNOSIS OF AMYLOID-RELATED DISEASE” (priority 2007, published 2010).
Values belong to the molecule of their own block, whether it stands above or below them.

What was measured:
[1] = biological target: T1, Aβ(1-42) aggregate (Homo sapiens, UniProt P05067); experiment: Binding inhibition experiment using Aβ(1-42) aggregate, Ki values (Example 2); conditions: radioactive ligand [^125I]CL-NMe2; mean ± standard error of 3 experiments (compound 4: 6 experiments); compound numbers of Example 2; read-out: Ki values calculated by inhibition experiment
T1 construct: Amyloid β protein (Human, 1-42) [TFA form] was purchased from Peptide Institute, Inc; purchased Peptide Institute, Inc
T1 sequence (P05067 672-713 limits assumed): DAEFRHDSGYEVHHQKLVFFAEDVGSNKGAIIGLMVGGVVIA
Experimental: As a radioactive iodine-125 (^125I), Iodine-125 (3.7 GBq/mL) manufactured by MP Biomedicals, Inc. was used. Reverse phase HPLC was performed at a flow rate of 1.0 mL/min using a Cosmosil 5C18-AR-II column (4.6×150 mm) manufactured by Nacalai Tesque Inc. and ultrapure water:acetonitrile=3:7 as an elution solvent. ^1HNMR was measured using Varian Gemini 300 and tetramethylsilane as an internal standard substance. Mass spectrometry was performed using JEOL IMS-DX300. Preparative TLC was performed using 12 PLC plates 20×20-cm-Silica gel 60 F254, 2 mm manufactured by MERCK. Amyloid β protein (Human, 1-42) was purchased from Peptide Institute, Inc., and special grade reagents were used as other reagents.
(§1) Aβ(1-42) was dissolved in 10 mM phosphate buffer containing 1 mM EDTA (pH 7.4) at a concentration of 0.25 mg/mL, and the mixture was incubated at 37° C. for 42 h to prepare an Aβ(1-42) aggregate.
[…] of 10% EtOH solution, […] of a solution of [^125I]4-diethylamino-4′-iodochalcone ([^125I]CL-NMe2) in 10% ethanol, and […] of a sample solution at various concentrations (0 to 20 mM) were mixed, […] of an Aβ(1-42) aggregate solution was finally added, and the mixture was allowed to stand at room temperature for 3 h. Aβ(1-42) aggregate-bound compounds and nonbound compounds were separated with a Brandel M-24R cell harvester using a Whatman GF/B filter. Radioactivities remaining on the filter after filtration were measured with a γ-counter, and inhibition curves were created using Graph Pad Prism 4.0 to calculate inhibition constants (Ki values).

[2] = biological target: T1, Aβ(1-42) aggregate; experiment: Examination of binding site by binding inhibition experiment using Aβ(1-42) aggregate (Example 2); conditions: FIG. 10, compound numbers of Example 2, read-out: Ki for inhibition of binding of [^125I]CL-NMe2 to the Aβ(1-42) aggregate
Experimental: as §1
850 mL of 10% EtOH solution, […] of [^125I]CL-NMe2 solution, […] of a solution of congo red, thioflavine T, or compound 14 at various concentrations (0 to 20 mM) were mixed, […] of an Aβ(1-42) aggregate solution was finally added, and the mixture was allowed to stand at room temperature for 3 h. Aβ(1-42) aggregate-bound compounds and nonbound compounds were separated with a Brandel M-24R cell harvester using a Whatman GF/B filter. Radioactivities remaining on the filter after filtration were measured with a γ-counter, and inhibition curves were created using Graph Pad Prism 4.0 to calculate inhibition constants.

[3] = In-vivo radioactivity distribution experiment using normal mice (Example 2); conditions: Example 2 numbering; for In-vivo radioactivity distribution: blood / In-vivo radioactivity distribution: brain / In-vivo radioactivity distribution: heart / In-vivo radioactivity distribution: intestine / In-vivo radioactivity distribution: kidney / In-vivo radioactivity distribution: liver / In-vivo radioactivity distribution: lung / In-vivo radioactivity distribution: pancreas / In-vivo radioactivity distribution: spleen / In-vivo radioactivity distribution: stomach: normal mice, intravenous
Experimental: Radioactive iodine labeling compounds were diluted with physiological saline containing 10% EtOH. To each of four or five 5-week-old male ddY mice (20 to 25 g) per group, […] of a labeled compound, [^125I]Compound 7, 10, 13, or 14 (0.2 to 0.4 mCi), was administered from the caudal vein. Animals were decapitated at 2, 10, 30, or 60 min, blood was collected, the major organs were isolated, and then weights and radioactivities thereof were measured.

[4] = test system: senile plaque amyloid and vascular amyloid; experiment: Fluorescence staining experiment using brain tissue sections of Alzheimer's disease model mice; format: binding, APP/PS1 double transgenic mouse; conditions: in words; 100 μM in 50% aqueous ethanol, fluorescence microscope, FIG. 11
Experimental: As an Alzheimer's disease model mouse, APP/PS1 double transgenic mouse was used. The brain was removed, immobilized with 10% formaldehyde, dehydrated with alcohol and xylene, and then paraffin-embedded. The paraffin-embedded brain tissue was cut into a 5-μm section, and the section was treated with xylene, alcohol, and water and deparaffinized. The section was incubated in PBS for 30 min and then in solutions of various chalcone derivatives (100 μM) in 50% aqueous ethanol for 10 min. The section was washed with 50% ethanol and PBS and then examined with a fluorescence microscope (Leica TCS SP2).

[5] = biological target: T2, Aβ(1-40) aggregate (Homo sapiens, UniProt P05067); experiment: In-vitro binding experiment of chalcone derivatives using Aβ aggregate (Reference Example 1); conditions: in words; radioactivity on filter in presence vs absence of Aβ aggregate, FIG. 14; compound numbers of Reference Example 1
T2 construct: Amyloid β protein (Human, 1-40) [HCl form]; purchased Peptide Institute, Inc
T2 sequence (P05067 672-711 limits assumed): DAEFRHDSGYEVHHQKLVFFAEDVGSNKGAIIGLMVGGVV
Experimental: As a radioactive iodine-125 (^125I), IODINE-125 (74 MBq) manufactured by Amersham Biosciences was used. Reverse phase HPLC was performed at a flow rate of 1.0 mL/min using Cosmosil 5C18-AR Column (4.6×150 mm) manufactured by Nacalai Tesque Inc. and ultrapure water (A) and acetonitrile (B) (A:B=40:60) as an elution solvent. ^1H-NMR was measured using Varian Gemini 300 and tetramethylsilane as an internal standard substance. Mass spectrometry was performed using JEOL IMS-DX300. Amyloid β protein (Human, 1-40) [HCl form] and Amyloid β protein (Human, 1-42) [TFA form] were purchased from Peptide Institute, Inc., and special grade reagents were used as other reagents.
The Aβ aggregate was dissolved in a buffer containing 10 mM sodium phosphate and 1 mM EDTA (pH 7.4) at a concentration of 0.5 mg/mL, and the mixture was incubated at 37° C. for 36 to 42 h. The binding experiment was performed using 12×75 mm borosilicate glass tubes. 900 μL of 10% ethanol solution, 50 μL (57 nM) of an Aβ(1-40) aggregate solution, and 50 μL of [^125I]Compound 7 or 12 having various concentrations were mixed, and the mixture was allowed to stand at room temperature for 3 h. […] The radioactivities of substances remaining in the filter used for filtration were measured with a γ counter.

Ki [1]: 3.9 ± 0.4 nM
Ki [2]: 4 nM
stability in the organism ([3]; in words: radioactivity accumulation in the stomach, retention in blood, deiodination): instability in the organism
In-vivo radioactivity distribution: blood ([3]; 2 min): 4.91 (0.71) percent of the dose/g
In-vivo radioactivity distribution: brain ([3]; 2 min): 2.40 (0.30) percent of the dose/g
In-vivo radioactivity distribution: heart ([3]; 2 min): 5.05 (0.95) percent of the dose/g
In-vivo radioactivity distribution: intestine ([3]; 2 min): 1.73 (0.21) percent of the dose/g
In-vivo radioactivity distribution: kidney ([3]; 2 min): 7.41 (1.54) percent of the dose/g
In-vivo radioactivity distribution: liver ([3]; 2 min): 9.57 (2.00) percent of the dose/g
In-vivo radioactivity distribution: lung ([3]; 2 min): 8.29 (0.99) percent of the dose/g
In-vivo radioactivity distribution: pancreas ([3]; 2 min): 3.82 (0.57) percent of the dose/g
In-vivo radioactivity distribution: spleen ([3]; 2 min): 4.05 (0.63) percent of the dose/g
In-vivo radioactivity distribution: stomach ([3]; 2 min): 1.21(0.27) percent of the dose
In-vivo radioactivity distribution: blood ([3]; 10 min): 3.58 (0.35) percent of the dose/g
In-vivo radioactivity distribution: brain ([3]; 10 min): 0.75 (0.31) percent of the dose/g
In-vivo radioactivity distribution: heart ([3]; 10 min): 3.02 (0.60) percent of the dose/g
In-vivo radioactivity distribution: intestine ([3]; 10 min): 2.57 (0.53) percent of the dose/g
In-vivo radioactivity distribution: kidney ([3]; 10 min): 4.66 (0.68) percent of the dose/g
In-vivo radioactivity distribution: liver ([3]; 10 min): 7.10 (1.08) percent of the dose/g
In-vivo radioactivity distribution: lung ([3]; 10 min): 5.17 (0.69) percent of the dose/g
In-vivo radioactivity distribution: pancreas ([3]; 10 min): 1.94 (0.80) percent of the dose/g
In-vivo radioactivity distribution: spleen ([3]; 10 min): 5.48 (1.02) percent of the dose/g
In-vivo radioactivity distribution: stomach ([3]; 10 min): 5.29 (1.24) percent of the dose
In-vivo radioactivity distribution: blood ([3]; 30 min): 2.92 (0.60) percent of the dose/g
In-vivo radioactivity distribution: brain ([3]; 30 min): 0.31 (0.04) percent of the dose/g
In-vivo radioactivity distribution: heart ([3]; 30 min): 1.48 (0.78) percent of the dose/g
In-vivo radioactivity distribution: intestine ([3]; 30 min): 4.05 (0.99) percent of the dose/g
In-vivo radioactivity distribution: kidney ([3]; 30 min): 4.31 (1.01) percent of the dose/g
In-vivo radioactivity distribution: liver ([3]; 30 min): 5.95 (1.19) percent of the dose/g
In-vivo radioactivity distribution: lung ([3]; 30 min): 3.53 (0.35) percent of the dose/g
In-vivo radioactivity distribution: pancreas ([3]; 30 min): 1.95 (0.32) percent of the dose/g
In-vivo radioactivity distribution: spleen ([3]; 30 min): 5.01 (1.72) percent of the dose/g
In-vivo radioactivity distribution: stomach ([3]; 30 min): 9.81 (6.47) percent of the dose
In-vivo radioactivity distribution: blood ([3]; 60 min): 2.63 (0.45) percent of the dose/g
In-vivo radioactivity distribution: brain ([3]; 60 min): 0.21 (0.02) percent of the dose/g
In-vivo radioactivity distribution: heart ([3]; 60 min): 1.65 (0.24) percent of the dose/g
In-vivo radioactivity distribution: intestine ([3]; 60 min): 4.69 (1.64) percent of the dose/g
In-vivo radioactivity distribution: kidney ([3]; 60 min): 2.44 (0.35) percent of the dose/g
In-vivo radioactivity distribution: liver ([3]; 60 min): 4.96 (1.27) percent of the dose/g
In-vivo radioactivity distribution: lung ([3]; 60 min): 2.87 (0.46) percent of the dose/g
In-vivo radioactivity distribution: pancreas ([3]; 60 min): 1.86 (0.27) percent of the dose/g
In-vivo radioactivity distribution: spleen ([3]; 60 min): 3.03 (0.31) percent of the dose/g
In-vivo radioactivity distribution: stomach ([3]; 60 min): 8.73 (4.21) percent of the dose
Structure (SMILES): CN(C)c1ccc(C=CC(=O)c2ccc(I)s2)cc1 [Compound 14 in Example 2, 1-(5-iodo-2-thienyl)-3-(4-dimethylaminophenyl)-prop-2-en-1-one]
binding property to senile plaque amyloid and vascular amyloid on brain tissue sections [4]: stronger than that of fluorine-containing chalcone derivatives

binding property to the Aβ aggregate [5]: strong binding property
Structure (SMILES): CN(C)c1ccc(/C=C/C(=O)c2ccc(I)cc2)cc1 [Compound 12 in Reference Example 1]
